The source of these data is US7803779B2, “Drugs for the treatment and/or prophylaxis of gastroparesis symptom” (Chugai Seiyaku Kabushiki Kaisha, priority 2005, dated 2010).

“Also recorded” adds a separate entry of the source.

In experiment [1] the test system is diabetic patients presenting with gastroparesis symptom despite a normal level of gastric emptying. The experiment in a line: Effect of GM-611 on gastroparesis symptom in diabetic patients with a normal level of gastric emptying (Example 1, FIG. 1). It counts as in vivo, human. From the text:
FIG. 1, which is titled “Effect of GM-611 on gastroparesis symptom in diabetic patients with a normal level of gastric emptying”, is a graph showing results of evaluating the percentage of responders who were in the patients the gastroparesis symptom regardless a normal level of gastric emptying and who perceived an adequate relief of gastroparesis symptom by the administration of the therapeutic and/or preventive agent against gastroparesis symptom according to the present invention; M1R (month 1 responder) refers to patients who had adequate relief in at least 50% of weekly evaluations for the first one month of medication and CR (complete responder) refers to patients who were evaluated as monthly responder for three consecutive months.
(§1) In the following examples, GM-611 (8,9-didehydro-N-demethyl-9-deoxo-6,11-dideoxy-6,9-epoxy-12-O-methyl-N-(1-methylethyl)-11-oxoerythromycin,(2E)-2-butenedioate) was used as a compound of the formula (1). This compound was synthesized in the laboratories of Chugai Pharmaceutical Co., Ltd. as described in WO02/18403 and WO02/30943. To evaluate the efficacy of GM-611 in improving subjective gastroparesis symptom, diabetic patients on insulin therapy were selected. Since the analyses in the following examples were after the key-open of clinical trial, P<0.01 in a two-tail test was considered to show a significant effect and P<0.1 a tendency.
In order to assess the efficacy of GM-611 in improving subjective gastroparesis symptom, diabetic patients who were presenting with gastroparesis symptom despite a normal level of gastric emptying were selected. […] All assessment in the subjective gastroparesis symptom was evaluated by an electric diary by phone. Starting one week after the initiation of medication, the patients were interviewed every week and asked whether in the past 7 days, you have had adequate relief of your gastroparesis symptoms, and the yes/no answers were recorded. […] Patients who were evaluated as monthly responder for three consecutive months. were assigned as “complete responders” (CR).

Experiment [2] relates to diabetic patients with a longer-than-ten-year history of diabetes with a normal level of gastric emptying. The experiment in a line: Effect of GM-611 on gastroparesis symptom in diabetic patients of diabetic history longer than 10 years with a normal level of gastric emptying (Example 4, FIG. 4). Format: in vivo, human. The text has this:
FIG. 4, which is titled “Effect of GM-611 on gastroparesis symptom in diabetic patients of diabetic history longer than 10 years with a normal level of gastric emptying”, is a graph showing results of evaluating the percentage of responders who were in the diabetic patients of diabetic history longer than 10 years with the gastroparesis symptom regardless a normal level of gastric emptying and who perceived an adequate relief of gastroparesis symptom by the administration of the therapeutic and/or preventive agent against gastroparesis symptom according to the present invention; M1R (month 1 responder) refers to patients who had adequate relief in at least 50% of weekly evaluations for the first one month of medication and CR (complete responder) refers to patients who were evaluated as monthly responder for three consecutive months.
(§2) In the following examples, GM-611 (8,9-didehydro-N-demethyl-9-deoxo-6,11-dideoxy-6,9-epoxy-12-O-methyl-N-(1-methylethyl)-11-oxoerythromycin,(2E)-2-butenedioate) was used as a compound of the formula (1). This compound was synthesized in the laboratories of Chugai Pharmaceutical Co., Ltd. as described in WO02/18403 and WO02/30943. To evaluate the efficacy of GM-611 in improving subjective gastroparesis symptom, diabetic patients on insulin therapy were selected. […]
(§3) In order to assess the efficacy of GM-611 in improving subjective gastroparesis symptom, diabetic patients who were presenting with gastroparesis symptom despite a normal level of gastric emptying were selected. […] All assessment in the subjective gastroparesis symptom was evaluated by an electric diary by phone. Starting one week after the initiation of medication, the patients were interviewed every week and asked whether in the past 7 days, you have had adequate relief of your gastroparesis symptoms, and the yes/no answers were recorded. […] Patients who were evaluated as monthly responder for three consecutive months. were assigned as “complete responders” (CR). […]

Experiment [3] has as its system patients of type 1 diabetes with gastroparesis symptom and a normal level of gastric emptying. The experiment in a line: Effect of GM-611 on gastroparesis symptom in patients of type 1 diabetes with a normal level of gastric emptying (Example 2, FIG. 2). Format: in vivo, human. Conditions: type 1 diabetes patients only.
Excerpt: FIG. 2, which is titled “Effect of GM-611 on gastroparesis symptom in patients of type 1 diabetes with a normal level of gastric emptying”, is a graph showing results of evaluating the percentage of responders who were in the patients of type 1 diabetes with the gastroparesis symptom regardless a normal level of gastric emptying and who perceived an adequate relief of gastroparesis symptom by the administration of the therapeutic and/or preventive agent against gastroparesis symptom according to the present invention; M1R (month 1 responder) refers to patients who had adequate relief in at least 50% of weekly evaluations for the first one month of medication and CR (complete responder) refers to patients who were evaluated as monthly responder for three consecutive months.
as §1, §3

For experiment [4], the system named is diabetic patients with good glycemic control (hemoglobin A1C no more than 8%) with a normal level of gastric emptying. In words: Effect of GM-611 on gastroparesis symptom in diabetic patients of good glycemic control with a normal level of gastric emptying (Example 3, FIG. 3). It counts as in vivo, human.
Excerpt: FIG. 3, which is titled “Effect of GM-611 on gastroparesis symptom in diabetic patients of good glycemic control with a normal level of gastric emptying”, is a graph showing results of evaluating the percentage of responders who were in the diabetic patients with good glycemic control with the gastroparesis symptom regardless a normal level of gastric emptying and who perceived an adequate relief of gastroparesis symptom by the administration of the therapeutic and/or preventive agent against gastroparesis symptom according to the present invention; M1R (month 1 responder) refers to patients who had adequate relief in at least 50% of weekly evaluations for the first one month of medication and CR (complete responder) refers to patients who were evaluated as monthly responder for three consecutive months.
as §2, §3

Experiment [5] relates to patients with gastroparesis. Particulars: 383 patients, both delayed and non-delayed gastric emptying; cited from earlier work.
A further experiment concerns gastric emptying. Conditions: clinical; cited from earlier work.

As to `CC[C@H]1OC(=O)[C@H](C)[C@@H](O[C@H]2C[C@@](C)(OC)[C@@H](O)[C@H](C)O2)[C@H](C)[C@@H](O[C@@H]2O[C@H](C)C[C@H](N(C)C(C)C)[C@H]2O)[C@@]2(C)CC(C)=C(O2)[C@H](C)C(=O)[C@]1(C)OC.O=C(O)/C=C/C(=O)O` [GM-611, 8,9-didehydro-N-demethyl-9-deoxo-6,11-dideoxy-6,9-epoxy-12-O-methyl-N-(1-methylethyl)-11-oxoerythromycin,(2E)-2-butenedioate], the “dose dependency of efficacy” value in experiment [1] is “no apparent dose dependency”; in experiment [2], “dose-dependent manner”; in experiment [3], “dose-dependent”; in experiment [4], “dose-dependent manner”. The “P, CR rate in whole GM-611 treated group vs. placebo group by chi-square test” value in experiment [1] (complete responders, 3 months) turned out to be 0.025; in experiment [2], 0.001; in experiment [3], 0.001; in experiment [4], 0.010. The “percentage of responders who had adequate relief in gastroparesis symptom vs placebo group” value in experiment [1] (twice daily at meals for 3 months, both GM-611 groups) is “greater than those in the placebo group; also recorded: only a tendency to improve the symptom”. In addition, the “efficacy in improving the symptom” value is reported as “significant efficacy in improving the symptom” in experiment [2], “significant” in experiment [3] (normal gastric emptying) and “significant efficacy in improving the symptom” in experiment [4].
As to `CC[C@H]1OC(=O)[C@H](C)[C@@H](O[C@H]2C[C@@](C)(OC)C[C@H](C)O2)[C@H](C)[C@@H](O[C@@H]2O[C@H](C)C[C@H](N(C)CC)[C@H]2O)[C@@]2(C)CC(C)=C(O2)[C@H](C)[C@@H](O)[C@H]1C` [ABT-229], the “efficacy on gastroparesis symptom” value in experiment [5] is reported as “no efficacy”. Moreover, in the experiment on gastric emptying, the “acceleration of gastric emptying” value was “capable of accelerating gastric emptying”.
